# According to patent publication US20060292158A1, “Method for the treatment of cancer using a novel pharmaceutical composition containing at least one dolastatin 10 derivative” (priority 2004, published 2006):
# Like-named read-outs stand apart in the source and are kept apart here.
# Columns and labels:
# [1] = test system: KPL-4 human breast carcinoma xenograft; experiment: Antitumor activity in KPL-4 orthotopic xenograft in athymic nude mice, combination with trastuzumab (Example 1); assay type: in vivo; settings: monotherapy 3, 4 or 6 mg/kg; one week after final injection; control 2.5% DMSO-saline plus 20 mg/kg human IgG
# Method: The KPL-4 human breast carcinoma cell line was kindly donated by Prof. Kurebayashi, Kawasaki Medical Center. The cells were cultured in Dulbecco's MEM (Sigma Chemical Co.) supplemented with 5% (v/v) fetal bovine serum (Roche Diagnostics).
# One hundred forty (140) 5-week-old female athymic nude mice (BALB/c nu/nu) were purchased from Charles River Japan, Inc. (Yokohama, Japan). The mice were housed in an air-conditioned room (temperature 22±2° C., relative humidity 55±10%) under 12 h light/dark cycles. The mice were given sterilized CE-2 and tap water with 25μg/mL gentamycin ad libitum. […]
# The in vivo evaluation procedure for anticancer drugs was based on the methods described by Plowman, et al. (1997) for xenograft models. […] The tumor volume and body weight of each mouse were measured twice a week. […] One week after the final injection, tumor growth inhibition (TGI) was calculated using the formula (1-T/C)×100 (%), where T (treated group) and C (control group) represent the mean tumor volume change. ED50 values were calculated from values of tumor growth inhibition on day 21 using the XL fit program. […]
# Packaged software (SAS preclinical package version 5.0,SAS Institute Japan, Ltd.) was used for the statistical analysis. […] ED50s were calculated from values of tumor growth inhibition percentage using XL fit program #509 (MS Excel Add […], ID Business Solutions Ltd.)
# [2] = test system: Calu-6 human lung cancer xenograft; assay type: in vivo; settings: day 32 after inoculation
# Method: The Calu-6 human lung carcinoma cell line was purchased from American Type Culture Collection (MD, U.S.A.). The cells were cultured in Eagle's MEM (Sigma-Aldrich corporation, MO, U.S.A.) supplemented with 0.1 milli mol/L Non-essential amino acids (Invitrogen corporation, CA, U.S.A.), 1 milli mol/L sodium pyruvate (Invitrogen corporation, CA, U.S.A.), and 10% (v/v) fetal bovine serum (Roche Diagnostics KK, Tokyo, Japan).
# 60 of 5-week-old male athymic nude mice (BALB/c nu/nu) were purchased from Charles River Japan, Inc. (Yokohama, Japan). All mice were kept for 8 days in the animal facility of Kamakura Research Laboratories of Chugai Pharmaceutical Co., Ltd. before subjection to the experiment.
# The title compound was synthesized at Kamakura Research Laboratories of Chugai Pharmaceutical Co., Ltd. Irinotecan (Topotecin™, lot. No. EQAZF13) was obtained from Daiichi Pharmaceutical Co., Ltd. (Tokyo, Japan). The title compound was dissolved in dimethyl sulfoxide (DMSO) and diluted into 2.5 % DMSO solution with saline (For Injection; Ohtsuka Pharmaceutical Industry Co., Ltd., Tokushima, Japan) at the date of administration. Irinotecan was diluted with saline at the date of administration.
# The in vivo evaluation procedure for anticancer drugs was based on the methods described by Plowman, et al. (1997) for xenograft models. See, “Anticancer Drug Development Guide: Preclinical Screening, Clinical Trials, and Approval, Teicher B (ed) pp. 101-125, specifically Chap. 6, “Human Tumor Xenograft Models in NCI Drug Development”, hereby incorporated by reference. A single cell suspension of Calu-6 (5.7×10^6 cells per mouse) was inoculated subcutaneously into the right flank of each mouse. The tumor volume was estimated by using the equation ab^2/2, where a and b represent tumor length and width, respectively. Mice bearing tumors of between 181 and 326 mm^3 were selected on day 11 after tumor inoculation and were randomly divided into 10 groups, consisting of 5 mice each. […] Drug administration was initiated after mice were randomized and divided into groups. The tide compound (0.375 mg/kg; 0.75 mg/kg; 1.5 mg/kg or 3 mg/kg), irinotecan (80 mg/kg) and each vehicles were administered intravenously. Tumor volume and body weight of each mouse were measured twice a week. […] Tumor growth inhibition was calculated by using the equation (1-ΔT/ΔC)×100, where ΔT represents the tumor volume difference from the initial treatment date of treated group and ΔC represents the tumor volume difference from the initial treatment date of vehicle group.
smiles,measurement,setting,value
"CC[C@H](C)[C@@H]([C@@H](CC(=O)N1CCC[C@H]1[C@H](SC)[C@@H](C)C(=O)N(C)CCc1cccc(O)c1)OC)N(C)C(=O)[C@@H](NC(=O)[C@H](C(C)C)N(C)C)C(C)C [compound of formula (I-A), N-[1-({1-sec-Butyl-4-[2-(2-{[2-(3-hydroxy-phenyl)-ethyl]-methyl-carbamoyl}-1-methylsulfanyl-propyl)-pyrrolidin-1-yl]-2-methoxy-4-oxo-butyl}-methyl-carbamoyl)-2-methyl-propyl]-2-dimethylamino-3-methyl-butyramide]",volume of tumor in comparison with control,[1],decreased significantly
same,tumor growth inhibition,[2]; 0.375 mg/kg i.v. weekly x3,11%
same,tumor growth inhibition,[2]; 0.75 mg/kg i.v. weekly x3,21%
same,tumor growth inhibition,[2]; 1.5 mg/kg i.v. weekly x3,41%
same,tumor growth inhibition,[2]; 3 mg/kg i.v. weekly x3,117%
